This is an account of results in patent US6432962B1, “Benzophenones as inhibitors of IL-1β and TNF-α” (Leo Pharmaceutical Products Ltd. A/S, priority 2000, dated 2002).

The structures appear in SMILES notation.

Data set [1] deals with TNF-α secretion, LPS stimulated peripheral blood mononuclear cells. In words: Inhibition of TNF-α secretion from LPS stimulated peripheral blood mononuclear cells. It counts as cell-based. The note with it: LPS stimulated human PBMC, 18 hours, ELISA; read-out: Inhibition of cytokines in vitro, median inhibition concentration (IC50), TNF-α. The procedure:
(§1) To study the effect of the compound of the present invention in vitro the inhibition of the IL-1β and TNF-α secretion was measured using the following procedure: Cytokine production was measured in the media from lipopolysaccharide (LPS) stimulated peripheral blood mononuclear cells. The mononuclear cells were isolated from human peripheral blood by Lymphoprep® (Nycomed, Norway) fractionation and suspended in RPMI 1640 (growth medium) with foetal calf serum (FCS, 2%), at a concentration of 5×10^5 cells/ml. The cells were incubated in 24-well tissue culture plates in 1 mL aliquots. Test compounds were dissolved in dimethylsulfoxide (DMSO, 10 mM) and were diluted with the medium. Compounds were added to the cells for 30 minutes, then LPS ([…] final concentration) was added. The plates were incubated for 18 hours, and the concentration of IL-1β and TNF-α in the medium was determined by enzyme-linked immunosorbent assays. The median inhibitory concentrations (IC50) of the compounds were calculated.

Data set [2] concerns Human polymorphonuclear (PMN) granulocytes, superoxide anion generation. In words: Inhibition of PMN superoxide secretion (ferricytochrome C reduction). Format: cell-based. The note with it: human PMN primed with TNF-α, fMLP stimulated; read-out: Inhibition of PMN-superoxide production in vitro, median inhibition concentration (IC50). The method, then:
The compounds of the present invention also show similar activities in the ability to inhibit PMN (polymorphonuclear) superoxide secretion which is also indicative of potentially useful anti-inflammatory drugs. The compounds were tested using the following procedure: Human polymorphonuclear (PMN) granulocytes were isolated from human blood by dextran sedimentation, Lymphoprep® fractionation and hypotonic lysis of contaminating erythrocytes. Superoxide anion generation was measured as the superoxide dismutase inhibitable reduction of ferricytochrome C (Madhu, S. B. et al, Inflammation, 16, 241, (1992)). The cells were suspended in Hanks' balanced salt solution, and incubated for 10 minutes at 37° C. with test compounds. The cells were primed by the addition of TNF-α (3 ng/mL final concentration) for 10 minutes, and then ferricytochrome C, (final concentration 750 μg/mL), bovine serum albumin (BSA, final concentration 1 mg/mL) and formylmethionyl-leucyl-phenylalanine (fMLP, final concentration 10^-7 M) were added for 3 minutes. The cells were chilled on ice, and were spun down. The optical densities in the cell-free supernatant was measured in a spectrophotometer. The median inhibitory concentration (IC50) of the compounds was calculated.

The nature of data set [3]: Log P of the tested compounds. Format: physicochemical.
Data set [4] has as its system IL-1β secretion, LPS stimulated peripheral blood mononuclear cells. Kind of data set: Inhibition of IL-1β secretion from LPS stimulated peripheral blood mononuclear cells. Format: cell-based. The note with it: LPS stimulated human PBMC, 18 hours, ELISA; read-out: Inhibition of cytokines in vitro, median inhibition concentration (IC50), IL-1β. The procedure: as §1
A general note: ELISA stands for enzyme-linked immunosorbent assay.

Data set [5] concerns the target T1, p38α MAP kinase (Homo sapiens, UniProt Q16539).
T1 construct: made in house; host or cells: COS-1 cells (transient co-transfection, anti-FLAG M2 immunoprecipitation)
Kind of data set: p38α MAP kinase assay. Format: biochemical. The note with it: immunoprecipitated FLAG-p38α from COS-1 cells, GST-ATF-2 substrate; read-out: IC50 values for the inhibition of p38α MAP kinase, mean concentration.
Description: Transient Expression of COS-1 Cells
On day one COS-1 cells were seeded in 143 cm^2 petridish with a density of 2×10^4 cells/cm^2 in growth medium. At day 2 the cells were co-transfected with 5 μg (total) of experimental plasmid DNA, expressing the FLAG-p38α and FLAG-MKK6(EE). The plasmids were introduced into the COS-1 cells in serum-free medium using DOTAP™ (Boehringer-Mannheim, Mannheim, Germany). Plasmid DNA was prepared and purified using the QIAGEN EndoToxin-free Maxiprep-500 kit (Hilden, Germany). Briefly, DNA and DOTAP™ were mixed for exactly 15 min. at 37° C. in the CO2 incubator. The transfection-mixture was hereafter transferred to a 15-mL falcon-tube and transfection-medium (DMEM with L-Glutamine and Pen./Strep. but without serum) was added to the transfection-mixture, followed by addition to the cell-monolayer. After 4 hours of incubation with DOTAP™ and plasmids, the medium containing double amount of serum was added to the cells bringing the final concentration of serum up to 10%. […]
The reaction was allowed to proceed for 30 min. at 30° C., and it was stopped by adding 40 μl of 2×SDS-sample buffer to the kinase reaction. […] The dried SDS-PAGE gel was exposed to a Phospho-Imager screen and the radioactive PHAS-1 bands were quantified by the STORM860 Phospho-Imager (Molecular Dynamics, Sunnyvale, Calif., USA) using the ImageQuaNT software.

T1 sequence (Q16539 whole entry): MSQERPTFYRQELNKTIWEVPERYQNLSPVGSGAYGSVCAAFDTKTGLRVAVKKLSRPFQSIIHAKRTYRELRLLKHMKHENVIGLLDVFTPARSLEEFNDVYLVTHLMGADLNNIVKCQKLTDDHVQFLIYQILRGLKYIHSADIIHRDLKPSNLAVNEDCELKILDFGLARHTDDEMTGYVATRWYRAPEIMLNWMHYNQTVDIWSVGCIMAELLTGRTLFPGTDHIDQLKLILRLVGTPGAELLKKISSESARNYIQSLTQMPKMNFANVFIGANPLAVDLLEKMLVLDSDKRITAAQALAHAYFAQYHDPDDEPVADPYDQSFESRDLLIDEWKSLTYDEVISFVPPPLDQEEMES

Consider `Cc1ccccc1C(=O)c1ccc(Nc2cncc3ccccc23)cc1Cl` [Compound 114, 2-Chloro-4-(4-isoquinolylamino)-2′-methylbenzophenone], for which the IC50 in data set [1] was determined as 5 nM; in data set [2], 15 nM; in data set [4] it was 31 nM; in data set [5] it was 12.8 nM. Moreover, the logP (usually a log measure of how a compound divides between an organic and an aqueous phase) in data set [3] came out at 4.2.
For the compound `Cc1ccccc1C(=O)c1ccc(Nc2c[n+]([O-])cc3ccccc23)cc1Cl` [Compound 128, 2-Chloro-4((4-isoquinolyl-N-oxide)amino)-2′-methylbenzophenone], the IC50 in data set [1] is 3.1 nM; in data set [2], 12.6 nM; in data set [4], 15.8 nM. For the same compound, the log partition coefficient (Log P) – broadly, the decadic logarithm of the partition coefficient of the neutral form, usually between octanol and water – in data set [3] is listed as 4.4.
Turning to `Cc1ccccc1C(=O)c1ccc(Nc2ccccc2N)cc1Cl` [Ref. comp., 4-(2-aminophenylamino)-2-chloro-2′-methylbenzophenone, reference compound], the figures for the IC50 in data set [1], in data set [2] and in data set [4] were 7.1 nM, 5 nM and 13 nM, respectively. Moreover, the logP in data set [3] was 4.9.
